US20260234185A1, “ANTI-AGING COMPOSITION COMPRISING PEPTIDE COMPLEX AS ACTIVE INGREDIENT” (priority 2023, published 2026)
Where no end group is shown, it is not given here.

What was measured:
[1] = test system: fibroblast growth factor 21 (FGF21); test: Western blot of FGF21 protein expression in adipocytes; format: cell-based; conditions: differentiated 3T3-L1 adipocytes; 0.2, 2, 20 μg/mL; 1 hour; Western blot (FIGS. 1a, 1b)
Protocol: (§1) An experiment was performed to determine whether the peptide complex prepared in Preparation Example 1 using adipocytes increases the phosphorylation of AMP-activated protein kinase (AMPK), which is a longevity-related protein, and increases the expression levels of sirtuin 1 (SIRT1) and fibroblast growth factor 21 (FGF21) proteins in adipocytes.
(§2) When 3T3-L1 preadipocytes reached 80% confluence, they were seeded at 5×10^3 cells/well in a 96-well plate and used for the experiment. Two days after reaching confluence, the medium was replaced with a differentiation-inducing medium to induce the differentiation into adipocytes, and two days after the induction, the cells were cultured for 2 days in a medium containing 10% FBS and 10 μg/mL insulin, and then the medium was replaced with 10% FBS every 2 days until their differentiation into adipocytes. Once the differentiation was complete, the medium was replaced with a serum-free medium and cultured for 4 hours to induce starvation. The peptide complexes were treated at concentrations of 0.2 μg/mL, 2 μg/mL, and 20 μg/mL, incubated for 1 hour, dissolved by adding dissolution buffer thereto, and the proteins obtained by centrifugation at 4° C. and 12,000 rpm for 30 minutes were quantified using a BCA kit. […]

SIRT1 = test: Western blot of SIRT1 protein expression in myocytes; format: cell-based, mouse; conditions: differentiated C2C12 myocytes; 0.2, 2, 20 μg/mL; 24 hours; Western blot (FIGS. 6a, 6b)
Protocol: (§3) An experiment was performed to determine whether the peptide complex increases the phosphorylation of AMPK and the expression of SIRT1 and FGF21 proteins in myocytes.
(§4) C2C12 cells, mouse-derived myoblasts, were cultured in DMEM medium containing 1% P/S and 2% BCS. When the cell confluency reached 70-80%, the cells were seeded in a 6-well culture plate. When the cell confluency in the 6-well culture plate reached 100%, the medium was replaced with differentiation medium (1% P/S, 2% horse serum), and thereafter, the differentiation medium (1% P/S, 2% horse serum) was replaced once every two days. Five days after the first replacement, the peptide complex was treated at concentrations of 0.2 μg/mL, 2 μg/mL, and 20 μg/mL and cultured for 24 hours. The group untreated with the peptide complex was used as the control. After dissolving by adding dissolution buffer thereto, the proteins obtained were centrifuged at 4° C. and 12,000 rpm for 30 minutes, and quantified using a BCA kit. The proteins were subjected to sodium dodecyl sulfate-polyacrylamide gel electrophoresis (SDS-PAGE) and then electrotransferred onto a membrane. The membrane with the proteins attached was blocked by treating it with 5% skim milk, and then the primary antibody was reacted overnight at 4° C. […]

[2] = test system: AMP-activated protein kinase (AMPK); test: Western blot of AMPK phosphorylation in adipocytes; format: cell-based; conditions: differentiated 3T3-L1 adipocytes; 0.2, 2, 20 μg/mL; 1 hour; Western blot (FIGS. 1a, 1b)
Protocol: as §1, §2

AMPK [3] = test: Western blot of AMPK phosphorylation in myocytes; format: cell-based, mouse; conditions: differentiated C2C12 myocytes; 0.2, 2, 20 μg/mL; 24 hours; Western blot (FIGS. 6a, 6b)
Protocol: as §3, §4

AMPK [4] = test: Western blot of AMPK phosphorylation in myocytes with palmitate-induced insulin metabolic disorder; format: cell-based, mouse; conditions: C2C12 myocytes in insulin metabolic disorder induced by palmitate treatment; 0.2, 2, 20 μg/mL; 24 hours; Western blot (FIGS. 7a, 7b)
Protocol: An experiment was performed to determine whether the peptide complex increases AMPK phosphorylation and SIRT1 expression levels in myocytes in a state of insulin metabolic disorder induced by palmitate treatment.
as §4

peptide complex: prepared by mixing equal amounts of the peptide of SEQ ID NO: 1 (LKTRN) and the peptide of SEQ ID NO: 2 (KGSATGWMA) (also: mixture of two peptides)
increased: expression level of FGF21 protein [1] | expression level of SIRT1 protein (SIRT1) | phosphorylation of AMPKα [2] | phosphorylation of AMPK (AMPK [3]) | phosphorylation of AMPK (AMPK [4])
